Legend:
Homo sapiens = species on record: Homo sapiens; assay: Inhibition of human PKA assessed as residual activity at 1 uM using bio-4xCHKT as substrate in presence of 33P-ATP by ProQinase assay relative to control
[1] = target: Tyrosine-protein kinase SYK (Homo sapiens) (UniProt P43405); assay: Inhibition of human SYK (1 to 635 residues) assessed as residual activity at 1 uM using polyEY as substrate in presence of 33P-ATP by ProQinase assay relative to control
[2] = target: G protein-coupled receptor kinase 4 (Homo sapiens) (UniProt P32298); assay: Inhibition of human GRK4 assessed as residual activity at 1 uM using casein as substrate in presence of 33P-ATP by ProQinase assay relative to control
[3] = target: Focal adhesion kinase 1 (Homo sapiens) (UniProt Q05397); assay: Inhibition of human FAK (2 to 1052 residues) assessed as residual activity at 1 uM using polyEY as substrate in presence of 33P-ATP by ProQinase assay relative to control
[4] = target: Calcium/calmodulin-dependent protein kinase type 1D (Homo sapiens) (UniProt Q8IU85); assay: Inhibition of CAMK1D (unknown origin) assessed as remaining activity at 1 uM by Kinome scan method relative to control
Sequence of Calcium/calmodulin-dependent protein kinase type 1D (Homo sapiens) (Q8IU85 whole entry, looked up): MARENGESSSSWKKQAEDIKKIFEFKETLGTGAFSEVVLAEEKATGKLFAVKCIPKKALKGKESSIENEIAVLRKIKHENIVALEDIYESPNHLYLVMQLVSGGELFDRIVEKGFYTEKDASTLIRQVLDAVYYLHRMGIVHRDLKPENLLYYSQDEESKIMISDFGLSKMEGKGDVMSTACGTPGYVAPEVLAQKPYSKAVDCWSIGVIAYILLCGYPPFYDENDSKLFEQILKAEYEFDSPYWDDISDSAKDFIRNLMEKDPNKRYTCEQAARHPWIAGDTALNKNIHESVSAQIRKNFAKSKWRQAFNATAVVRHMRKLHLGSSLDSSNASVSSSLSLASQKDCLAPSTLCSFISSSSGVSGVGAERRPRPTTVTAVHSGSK

[5] = target: Leukocyte tyrosine kinase receptor (Homo sapiens) (UniProt P29376); assay: Inhibition of LTK (unknown origin) assessed as remaining activity at 1 uM by Kinome scan method relative to control
Sequence of Leukocyte tyrosine kinase receptor (Homo sapiens) (P29376 whole entry): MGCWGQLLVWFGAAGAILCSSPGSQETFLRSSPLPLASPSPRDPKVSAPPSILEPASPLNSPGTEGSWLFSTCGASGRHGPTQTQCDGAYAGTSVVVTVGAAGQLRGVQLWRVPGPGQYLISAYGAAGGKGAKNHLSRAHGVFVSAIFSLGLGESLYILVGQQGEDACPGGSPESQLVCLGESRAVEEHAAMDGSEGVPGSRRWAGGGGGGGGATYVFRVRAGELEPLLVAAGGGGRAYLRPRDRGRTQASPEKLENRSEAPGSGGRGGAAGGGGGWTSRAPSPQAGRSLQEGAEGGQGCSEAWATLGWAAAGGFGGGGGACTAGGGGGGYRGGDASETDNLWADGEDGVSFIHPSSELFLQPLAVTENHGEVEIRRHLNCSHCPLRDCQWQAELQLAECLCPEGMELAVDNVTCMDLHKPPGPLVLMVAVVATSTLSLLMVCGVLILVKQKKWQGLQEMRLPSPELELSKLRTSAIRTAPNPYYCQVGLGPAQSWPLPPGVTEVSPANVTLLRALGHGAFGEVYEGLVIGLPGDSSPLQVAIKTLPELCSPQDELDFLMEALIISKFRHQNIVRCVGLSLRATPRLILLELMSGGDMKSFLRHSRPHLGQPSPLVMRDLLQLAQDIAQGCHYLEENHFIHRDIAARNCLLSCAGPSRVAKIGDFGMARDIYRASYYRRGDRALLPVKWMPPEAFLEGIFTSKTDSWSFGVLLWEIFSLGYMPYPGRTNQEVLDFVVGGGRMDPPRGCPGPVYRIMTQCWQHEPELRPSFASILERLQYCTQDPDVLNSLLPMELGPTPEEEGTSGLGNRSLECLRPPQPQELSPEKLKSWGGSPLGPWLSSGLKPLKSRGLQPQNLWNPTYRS

[6] = target: Mitogen-activated protein kinase kinase kinase kinase 5 (Homo sapiens) (UniProt Q9Y4K4); assay: Inhibition of MAP4K5 (unknown origin) assessed as remaining activity at 1 uM by Kinome scan method relative to control
Sequence of Mitogen-activated protein kinase kinase kinase kinase 5 (Homo sapiens) (Q9Y4K4 whole entry, looked up): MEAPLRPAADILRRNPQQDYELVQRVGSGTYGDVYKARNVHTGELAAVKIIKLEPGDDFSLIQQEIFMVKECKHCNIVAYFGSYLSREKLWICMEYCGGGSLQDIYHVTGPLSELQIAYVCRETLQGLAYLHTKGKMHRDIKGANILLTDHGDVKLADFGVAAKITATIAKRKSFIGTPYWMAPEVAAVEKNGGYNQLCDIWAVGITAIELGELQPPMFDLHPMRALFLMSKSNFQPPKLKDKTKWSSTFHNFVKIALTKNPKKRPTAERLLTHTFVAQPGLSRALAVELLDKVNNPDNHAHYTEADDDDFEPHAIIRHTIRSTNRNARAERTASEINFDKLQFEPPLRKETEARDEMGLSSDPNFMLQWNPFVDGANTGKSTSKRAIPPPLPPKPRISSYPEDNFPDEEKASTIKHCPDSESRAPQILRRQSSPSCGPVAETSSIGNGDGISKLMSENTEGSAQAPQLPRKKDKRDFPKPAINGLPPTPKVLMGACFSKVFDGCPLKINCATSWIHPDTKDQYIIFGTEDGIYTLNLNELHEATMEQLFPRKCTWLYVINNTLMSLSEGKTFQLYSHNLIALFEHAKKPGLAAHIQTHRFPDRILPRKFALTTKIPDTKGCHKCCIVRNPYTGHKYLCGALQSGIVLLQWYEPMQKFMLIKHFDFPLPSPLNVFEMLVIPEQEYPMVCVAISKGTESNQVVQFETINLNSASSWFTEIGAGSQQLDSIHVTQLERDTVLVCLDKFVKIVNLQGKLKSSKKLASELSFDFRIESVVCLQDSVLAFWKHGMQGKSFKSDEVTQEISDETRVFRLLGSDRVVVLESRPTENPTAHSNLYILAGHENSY

Mus musculus = assay: In vivo anti-inflammatory activity in Gal/LPS induced mouse assessed as TNF-alpha release at 3 mg/kg, po administered for 1 hrs; assay type: functional
[7] = target: Serine/threonine-protein kinase TAO2 (Homo sapiens) (UniProt Q9UL54); assay: Inhibition of human TAOK2 assessed as residual activity at 1 uM using casein as substrate in presence of 33P-ATP by ProQinase assay relative to control
Sequence of Serine/threonine-protein kinase TAO2 (Homo sapiens) (Q9UL54 whole entry): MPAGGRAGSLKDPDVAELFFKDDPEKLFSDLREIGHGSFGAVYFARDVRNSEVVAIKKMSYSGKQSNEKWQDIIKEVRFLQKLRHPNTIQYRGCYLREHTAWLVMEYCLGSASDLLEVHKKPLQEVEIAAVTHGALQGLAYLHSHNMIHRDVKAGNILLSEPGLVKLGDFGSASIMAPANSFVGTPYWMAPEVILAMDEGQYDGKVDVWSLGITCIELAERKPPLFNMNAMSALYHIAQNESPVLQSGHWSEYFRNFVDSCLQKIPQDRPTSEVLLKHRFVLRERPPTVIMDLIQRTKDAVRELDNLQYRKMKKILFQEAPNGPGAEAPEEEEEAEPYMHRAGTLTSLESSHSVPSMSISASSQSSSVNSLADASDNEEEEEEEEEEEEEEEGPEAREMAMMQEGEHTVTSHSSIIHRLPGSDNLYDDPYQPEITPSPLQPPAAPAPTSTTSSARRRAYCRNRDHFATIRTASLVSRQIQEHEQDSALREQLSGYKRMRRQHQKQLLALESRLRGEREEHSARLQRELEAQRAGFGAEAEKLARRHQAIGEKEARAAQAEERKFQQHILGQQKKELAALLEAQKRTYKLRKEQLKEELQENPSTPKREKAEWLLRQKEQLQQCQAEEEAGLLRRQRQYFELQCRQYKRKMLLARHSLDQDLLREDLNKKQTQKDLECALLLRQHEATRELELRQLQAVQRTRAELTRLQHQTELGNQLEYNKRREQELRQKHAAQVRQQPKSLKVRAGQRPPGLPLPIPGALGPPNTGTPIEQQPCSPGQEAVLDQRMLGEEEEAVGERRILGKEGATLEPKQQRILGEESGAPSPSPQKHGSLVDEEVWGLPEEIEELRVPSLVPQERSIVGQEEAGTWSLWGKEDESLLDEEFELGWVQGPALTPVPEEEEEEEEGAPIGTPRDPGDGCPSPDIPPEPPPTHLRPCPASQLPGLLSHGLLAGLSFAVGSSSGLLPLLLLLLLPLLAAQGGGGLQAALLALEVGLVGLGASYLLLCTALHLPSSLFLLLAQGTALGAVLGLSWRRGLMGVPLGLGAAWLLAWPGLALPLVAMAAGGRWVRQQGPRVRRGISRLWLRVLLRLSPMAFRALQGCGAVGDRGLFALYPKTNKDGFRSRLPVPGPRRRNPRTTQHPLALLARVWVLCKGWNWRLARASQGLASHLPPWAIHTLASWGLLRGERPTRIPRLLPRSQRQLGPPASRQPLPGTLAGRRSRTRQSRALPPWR

[8] = target: T1, Serine/threonine-protein kinase NLK (Homo sapiens) (UniProt Q9UBE8); assay: Inhibition of human NLK assessed as residual activity at 1 uM using RBER-GSK3 as substrate in presence of 33P-ATP by ProQinase assay relative to control
T1 sequence (whole entry): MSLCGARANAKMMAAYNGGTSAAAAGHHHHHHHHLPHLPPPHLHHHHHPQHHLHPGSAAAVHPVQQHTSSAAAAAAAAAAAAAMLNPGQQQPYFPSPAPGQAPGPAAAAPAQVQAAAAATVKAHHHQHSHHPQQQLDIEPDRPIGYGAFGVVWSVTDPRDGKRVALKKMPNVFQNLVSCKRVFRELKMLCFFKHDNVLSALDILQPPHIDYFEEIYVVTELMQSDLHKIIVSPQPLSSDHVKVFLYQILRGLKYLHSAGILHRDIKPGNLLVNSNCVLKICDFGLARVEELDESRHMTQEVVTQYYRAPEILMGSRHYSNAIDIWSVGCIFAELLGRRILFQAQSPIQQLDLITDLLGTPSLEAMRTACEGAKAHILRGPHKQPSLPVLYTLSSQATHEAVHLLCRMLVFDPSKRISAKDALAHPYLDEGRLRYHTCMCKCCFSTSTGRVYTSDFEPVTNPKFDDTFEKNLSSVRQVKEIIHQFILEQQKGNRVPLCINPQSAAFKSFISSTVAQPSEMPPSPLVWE

[9] = tested on: Tyrosine-protein kinase ABL1 (Homo sapiens), P00519 [E255K]; assay: Inhibition of human ABL1 E255K mutant assessed as residual activity at 1 uM using Poly(Ala,Glu,Lys,Tyr)6:2:5:1 as substrate in presence of 33P-ATP by ProQinase assay relative to control
[10] = target: T2, Ephrin type-B receptor 4 (Homo sapiens) (UniProt P54760); assay: Inhibition of human EPHB4 assessed as residual activity at 1 uM using polyEY as substrate in presence of 33P-ATP by ProQinase assay relative to control
T2 sequence (whole entry): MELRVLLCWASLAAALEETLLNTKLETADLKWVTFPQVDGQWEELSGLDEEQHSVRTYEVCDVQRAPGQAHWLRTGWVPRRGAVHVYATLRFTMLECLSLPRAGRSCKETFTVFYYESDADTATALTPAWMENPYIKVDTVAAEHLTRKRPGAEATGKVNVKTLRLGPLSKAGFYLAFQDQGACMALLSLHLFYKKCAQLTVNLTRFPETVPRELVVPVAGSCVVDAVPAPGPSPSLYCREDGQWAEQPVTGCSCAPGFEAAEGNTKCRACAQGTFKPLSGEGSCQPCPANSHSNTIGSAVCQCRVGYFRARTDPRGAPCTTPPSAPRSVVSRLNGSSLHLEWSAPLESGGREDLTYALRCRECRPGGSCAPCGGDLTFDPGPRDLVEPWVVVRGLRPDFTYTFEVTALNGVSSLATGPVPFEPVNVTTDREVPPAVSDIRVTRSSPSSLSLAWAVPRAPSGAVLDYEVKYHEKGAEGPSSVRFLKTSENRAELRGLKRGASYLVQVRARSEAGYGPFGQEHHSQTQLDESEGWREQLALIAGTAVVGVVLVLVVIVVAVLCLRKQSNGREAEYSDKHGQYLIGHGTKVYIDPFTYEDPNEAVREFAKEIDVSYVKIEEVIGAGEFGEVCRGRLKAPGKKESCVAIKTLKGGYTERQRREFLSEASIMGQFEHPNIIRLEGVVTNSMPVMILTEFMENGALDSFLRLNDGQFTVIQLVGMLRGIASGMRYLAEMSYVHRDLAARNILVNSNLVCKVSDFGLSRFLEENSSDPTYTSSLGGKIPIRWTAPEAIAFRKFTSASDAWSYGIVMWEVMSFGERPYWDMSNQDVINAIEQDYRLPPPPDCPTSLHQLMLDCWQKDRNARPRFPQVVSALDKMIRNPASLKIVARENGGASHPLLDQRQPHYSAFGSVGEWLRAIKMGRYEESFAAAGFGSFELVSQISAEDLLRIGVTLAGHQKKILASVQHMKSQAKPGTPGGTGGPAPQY

[11] = Anti-inflammatory activity against human derived high respond PBMC cells assessed as inhibition in stimulated MCP-1 chemokine release at 10 uM incubated for 2 hrs in the presence of LPS/SEB/aCD28 by Luminex based sandwich immunoassay relative to control; assay type: functional
[12] = target: Tyrosine-protein kinase Srms (Homo sapiens) (UniProt Q9H3Y6); assay: Inhibition of human SRMS assessed as residual activity at 1 uM using PolyEY as substrate in presence of 33P-ATP by ProQinase assay relative to control
Sequence of Tyrosine-protein kinase Srms (Homo sapiens) (Q9H3Y6 whole entry): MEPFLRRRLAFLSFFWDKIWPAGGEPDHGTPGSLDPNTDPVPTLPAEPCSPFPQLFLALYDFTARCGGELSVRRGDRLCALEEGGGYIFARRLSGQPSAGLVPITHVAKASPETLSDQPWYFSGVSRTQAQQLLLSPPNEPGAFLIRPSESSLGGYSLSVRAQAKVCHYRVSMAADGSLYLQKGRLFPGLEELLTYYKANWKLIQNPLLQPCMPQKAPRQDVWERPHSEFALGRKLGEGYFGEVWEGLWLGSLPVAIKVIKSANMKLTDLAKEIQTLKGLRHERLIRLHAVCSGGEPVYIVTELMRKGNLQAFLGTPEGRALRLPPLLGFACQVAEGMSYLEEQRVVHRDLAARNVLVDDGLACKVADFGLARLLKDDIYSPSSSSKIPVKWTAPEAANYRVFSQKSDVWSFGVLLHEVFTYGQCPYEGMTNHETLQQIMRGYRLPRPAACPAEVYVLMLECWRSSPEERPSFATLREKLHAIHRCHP

[13] = tested on: Epidermal growth factor receptor (Homo sapiens), P00533 [UNDEFINED MUTATION]; assay: Inhibition of EGFR L747-S752del/P753S mutant (unknown origin) assessed as remaining activity at 1 uM by Kinome scan method relative to control
Sequence of Epidermal growth factor receptor (Homo sapiens), P00533 [UNDEFINED MUTATION] (P00533 whole entry, looked up, stated change not applied): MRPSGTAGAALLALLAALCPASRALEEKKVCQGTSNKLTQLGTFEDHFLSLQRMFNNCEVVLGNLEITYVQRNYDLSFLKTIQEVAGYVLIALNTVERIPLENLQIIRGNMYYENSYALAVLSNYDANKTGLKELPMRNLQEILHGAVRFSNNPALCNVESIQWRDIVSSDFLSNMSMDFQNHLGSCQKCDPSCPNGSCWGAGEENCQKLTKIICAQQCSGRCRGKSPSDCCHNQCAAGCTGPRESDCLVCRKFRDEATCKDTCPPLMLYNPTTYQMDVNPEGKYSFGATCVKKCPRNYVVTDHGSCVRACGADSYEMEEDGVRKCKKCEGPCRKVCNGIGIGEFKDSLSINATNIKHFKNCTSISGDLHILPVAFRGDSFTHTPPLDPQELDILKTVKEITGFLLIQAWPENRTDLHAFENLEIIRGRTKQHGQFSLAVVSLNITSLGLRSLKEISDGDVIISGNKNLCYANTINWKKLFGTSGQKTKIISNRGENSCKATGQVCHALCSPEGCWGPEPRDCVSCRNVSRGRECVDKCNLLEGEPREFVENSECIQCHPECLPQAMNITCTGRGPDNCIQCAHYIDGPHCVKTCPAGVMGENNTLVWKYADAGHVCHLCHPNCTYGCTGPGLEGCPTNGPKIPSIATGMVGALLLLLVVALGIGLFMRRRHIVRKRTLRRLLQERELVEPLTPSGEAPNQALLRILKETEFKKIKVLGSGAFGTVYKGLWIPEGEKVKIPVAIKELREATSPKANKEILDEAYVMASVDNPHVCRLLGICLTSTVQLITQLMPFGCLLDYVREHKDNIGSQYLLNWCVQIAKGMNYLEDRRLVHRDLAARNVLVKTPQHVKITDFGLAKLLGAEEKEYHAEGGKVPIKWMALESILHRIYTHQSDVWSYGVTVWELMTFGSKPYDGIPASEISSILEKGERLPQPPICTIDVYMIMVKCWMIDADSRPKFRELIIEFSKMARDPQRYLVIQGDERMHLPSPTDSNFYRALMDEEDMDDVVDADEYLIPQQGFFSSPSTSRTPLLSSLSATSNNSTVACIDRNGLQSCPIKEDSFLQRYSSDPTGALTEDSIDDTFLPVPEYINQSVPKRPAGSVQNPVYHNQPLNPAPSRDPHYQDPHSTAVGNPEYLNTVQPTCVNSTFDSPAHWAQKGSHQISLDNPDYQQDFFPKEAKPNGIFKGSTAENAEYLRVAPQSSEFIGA

O=C1c2ccc(Nc3ccc(F)cc3F)cc2CCc2ccc(OC[C@H](O)CO)cc21 [Skepinone-L]
Activity (Homo sapiens): 94%
Activity [1]: 98%
Activity [2]: 100%
Activity [3]: 113%
Activity [4]: 99%
Activity [5]: 100%
Activity [6]: 100%
Activity (Mus musculus): 36.3 pg/mL
Activity [7]: 102%
Activity [8]: 87%
Activity [9]: 105%
Activity [10]: 128%
inhibition at 10 µM [11]: 25%
Activity [12]: 95%
Activity [13]: 100%

Reference: ChEMBL document CHEMBL5696441 (Nat Chem Biol, 2011)
